# Entries after “also recorded” stand apart in the source; their conditions may differ. Where two headings read alike, the source gives them in different places.
# Experiments:
# [1] = system: MDA-MB231, BT549 and MCF-7 breast cancer cells; test: Cell proliferation, MTT assay, DOT1L+ breast cancer cells; type: cell-based, Human; conditions: for EC50: Homo sapiens
# [2] = system: MDA-MB231; test: Transwell cell migration assay; type: cell-based, Human; conditions: for cell migration and invasion: MDA-MB231, Transwell with and without Matrigel, in words
# Procedure: (§1) 5 × 10^4 cells/well were incubated with compounds for 14 days. For transwell migration assays, 5× 10^4 cells were plated in the top chamber with the non-coated membrane (24-well insert; pore size, […]; BD Biosciences). For invasion assays, 5× 10^4 cells were plated in the top chamber with Matrigel-coated membrane. The cells on the apical side of each insert were then scraped off after 22 h for both assays. The wells were washed with PBS, fixed with 100% methanol and stained with DAPI. Cells that had migrated to the basal side of the membrane were visualized and counted with a Nikon Eclipse TE2000-U microscope at 10×. Pictures of three random fields were obtained and the number of cells that had migrated quantified using ImageJ analysis software.
# [3] = system: MDA-MB231; test: Cell proliferation, MTT assay; type: cell-based; conditions: Homo sapiens
# [4] = system: MDA-MB231 cells; test: Cell cycle analysis, propidium iodide FACS; type: cell-based, Human
# Procedure: (§2) For apoptosis and cell cycle analysis, 10^5 cells/well were incubated with increasing concentrations of a compound for 7 or 10 days. Apoptosis was determined using the FITC Annexin V Apoptosis Detection Kit I (BD Bioscience) according to the manufacturer's protocol. Cells for cell cycle analysis were fixed in cold 70% ethanol at 4°C and stained with Propidium iodide (Sigma-Aldrich) (20 μg/ml) and RNase A (10 μg/ml) for 30min. Cells were analyzed using a FACS Calibur (BD Biosciences/Applied Biosystems) and data were processed using the program Flowjo (version7.6.5).
# [5] = system: MDA-MB231 xenograft; test: MDA-MB231 xenograft mouse model; type: in vivo, athymic nude mice; conditions: 4 mg/kg/day for 28 days
# Procedure: (§3) Female athymic nude mice (4 to 6 weeks old) were obtained from Charles River (Wilmington, MA, USA) and maintained under pathogen-free conditions. The use of athymic nude mice and their treatment were approved by the BCM Institutional Animal Care and Use Committee, and the experiments were conducted in strict compliance with the regulations. 2 ×10^6 MDA-MB-231 cells were injected into the upper right mammary fat pad of the recipient mouse and tumor growth and animal weights were monitored twice a week. The tumor volumes were calculated using the formula length × (width)^2/2. When the tumors reached a size of about 20–30 mm^3, mice were randomly segregated into control and treatment groups. Mice in the treatment group were implanted subcutaneously an osmotic pumps (Alzet model 2004) containing 2.8 mg of 3 in 200 μL of PBS. Animals were sacrificed when the volumes of tumors reaching ~1.5 cm^3. Log-rank analysis was used to determine statistical significance of the survival curves using Prism 5.0 (GraphPad).
# [6] = system: H3K79 methylation; test: Western blot of xenograft tumor tissues; type: in vivo, athymic nude mice; conditions: day 14, Western blot, in words
# Procedure: (§4) 10^6 cells/well were incubated with increasing concentrations of a compound for 5 days and histones extracted with the EpiQuik™ Total Histone Extraction Kit (Epigentek) according to the manufacturer's protocol. Equal amounts of histones (2μg) were separated on SDS-PAGE and transferred to PVDF membranes. The blots were probed with primary antibodies, followed by anti-rabbit IgG (Thermo Scientific) secondary antibodies. For western blot analysis of MDA-MB231 xenograft tumors, tumors were harvested and frozen in liquid nitrogen. Histones were extracted and analyzed by immunoblotting as described above.
# as §3, with “Mice in the treatment group were implanted subcutaneously an osmotic pumps (Alzet model 2004) containing 2.8 mg of 3 in 200 μL of PBS. Animals were sacrificed when the volumes of tumors reaching ~1.5 cm^3. Log-rank analysis was used to determine statistical significance of the survival curves using Prism 5.0 (GraphPad).” left out
# [7] = system: BT549; test: Cell proliferation, MTT assay; type: cell-based; conditions: Homo sapiens
# [8] = system: MCF-7; test: Cell proliferation, MTT assay; type: cell-based; conditions: Homo sapiens
# [9] = system: MDA-MB231 cells; test: CD44/CD24 flow cytometry; type: cell-based, Human; conditions: MDA-MB231, FACS, in words
# Procedure: (§5) 5 × 10^4 cells/well were incubated with compounds for 14 days. The ALDH activity of cells was determined by using the ALDEFLUOR assay kit (StemCell Technologies) according to the manufacturer's instructions. Combinations of fluorochrome-conjugated monoclonal antibodies against human CD44-FITC and CD24-PE were obtained from BD Biosciences. Primary antibodies or the respective isotype controls (BD Biosciences) were added to the cell suspension, according to the manufacturer's recommendation, and incubated at 4°C for 20 min. Dead cells were eliminated using propidium iodide (Sigma). The labelled cells were analyzed on a FACS Calibur (BD Biosciences/Applied Biosystems).
# [10] = system: methylation at H3K4, H3K9, H3K27, H3K36 and H4K20; test: Western blot of methylation at other histone lysines in MDA-MB231; type: cell-based, Human; conditions: at concentrations of <1 μM, in words
# Procedure: as §4
# [11] = system: MDA-MB231 cells; test: ALDEFLUOR assay; type: cell-based, Human; conditions: in words
# Procedure: as §5
# [12] = Toxicity in treated mice; type: in vivo
# Procedure: as §3
# [13] = target: SAHH; conditions: read-out: Ki against SAHH; cited from earlier work
# [14] = system: MDA-MB231; test: Secondary mammosphere assay; type: cell-based, Human; conditions: MDA-MB231, in words
# Procedure: The protocol for mammosphere assay was performed using a published method. The numbers of secondary mammospheres in each well were counted using a Leica MZ12.5 microscope.
# [15] = system: MDA-MB231 cells; test: Apoptosis, Annexin V FACS; type: cell-based, Human; conditions: 20 nM, day 7
# Procedure: as §2
# [16] = system: H3K27 methylation; test: Western blot of histone methylation in MDA-MB231; type: cell-based; conditions: Homo sapiens, MDA-MB-231, Fig. 4b, read-out: IC50 against H3K27 methylation
# Procedure: as §4
# [17] = system: H3K79 methylation; test: Western blot of histone methylation in MDA-MB231; type: cell-based, Human; conditions: for IC50: Homo sapiens, MDA-MB-231, read-out: IC50 of H3K79 methylation inhibition
# Procedure: (§6) Human cell lines BT549, MDA-MB231, MCF-7, MDA-MB157, HCC70, A549 and NB4 were obtained from the American Type Culture Collection (ATCC) and cultured using ATCC recommended conditions. Primary antibodies against H3K79me2, H3K27me3, H3K4me3, H3K36me2, H4K20me3, H3K9me-pan were purchased from Cell Signaling (Danvers, MA). siRNA experiments were performed by transfecting MDA-MB-231 cells with X-tremeGENE Transfection Reagent (Roche) and 10 nM siRNA (Invitrogen), according to the manufacturer's protocol.
# as §4
# [18] = system: MDA-MB231; test: Matrigel invasion assay; type: cell-based, Human
# Procedure: as §1
# [19] = system: HCC70; test: Cell proliferation, MTT assay; type: cell-based; conditions: Homo sapiens, read-out: Anti-proliferative activity EC50
# [20] = system: H3K79 methylation; test: Western blot of histone methylation in MCF-7; type: cell-based, Human; conditions: MCF-7, Western blot, in words
# Procedure: as §6, §4
# [21] = system: MDA-MB157; test: Cell proliferation, MTT assay; type: cell-based; conditions: Homo sapiens, read-out: Anti-proliferative activity EC50
# [22] = in words; cited from earlier work
# [23] = system: NB4; test: Cell proliferation, MTT assay; type: cell-based; conditions: Homo sapiens, read-out: Anti-proliferative activity EC50
# [24] = system: A549; test: Cell proliferation, MTT assay; type: cell-based, Human; conditions: for EC50: Homo sapiens, read-out: Anti-proliferative activity EC50
# [25] = system: five breast cancer cell lines, lung cancer A549 and non-MLL leukemia NB4 cells; test: Cell proliferation, MTT assay, whole panel; type: cell-based; conditions: Homo sapiens, 72 h; 3-day treatment, all seven cell lines; read-out: EC50 against all of these cells
# [26] = system: MDA-MB157 and HCC70 as well as A549 and NB4; conditions: in words
# [27] = system: MDA-MB231 cells; test: Microarray gene set enrichment analysis; type: cell-based, Human; conditions: 1 at 5 μM, 2 at 10 μM, in words
# Procedure: 10^5 cells/well were incubated with compounds for 14 days. Cells were lysed immediately in TRIzol® Reagent, frozen in liquid nitrogen, and shipped to Asuragen, Inc. (Austin, TX) for microarray experiments. RNA was isolated, amplified, and hybridized to Illumina Human HT-12 v4 arrays according to the manufacturer's protocol. Microarray data were log2 transformed and then normalized to have the same median for all the arrays. Moderate t-statistics were used to test if genes were differentially expressed between the groups of interest. Benjamini and Hochberg method was used to correct for multiple comparisons. R and Bioconductor packages were used for all the statistical analyses (http://cran.us.r-project.org/, http://www.bioconductor.org/). Gene set enrichment analysis was performed using GSEA software from Broad Institute (Boston, MA).
# [28] = MDA-MB-231, 72 h, MDA-MB231, 3-day treatment, read-out: Anti-proliferative activity EC50
# [29] = BT-549, 72 h, BT549, 3-day treatment, read-out: Anti-proliferative activity EC50
# [30] = MCF7, 72 h, MCF-7, 3-day treatment, read-out: Anti-proliferative activity EC50
smiles,measurement,setting,value
"Nc1ncnc2c1ncn2[C@@H]1C=C(CO)[C@@H](O)[C@H]1O [Compound 3, neplanocin A]",EC50,"[1]; 72 h, three DOT1L+ breast cancer cells, 3-day, read-out: EC50, 3-day treatment",900 to 2600 nM
same,times more active in 15-day than in the corresponding 3-day data,"[1]; MDA-MB231, BT549, MCF-7",18 - 100 ×
same,cell migration and invasion,[2],more pronounced activity; also recorded: reduced cell migration and invasiveness
same,EC50,[3]; [28],930 nM
same,EC50,"[3]; MDA-MB-231, 360 h, MDA-MB231, 15-day, read-out: EC50, 15-day treatment",9 nM
same,sub-G1 phase cell population,"[4]; MDA-MB231, in words",increased sub-G1 population
same,sub-G phase cell population after treatment,"[4]; MDA-MB231, control 4.4%",21.2%
same,animal survival,[5]; in words,significantly prolonged animal survivals
same,tumor growth,[5]; in words,significantly inhibited
same,tumor growth inhibition,[5]; subcutaneous osmotic pump,> 95%
same,tumors exhibiting regression during the treatment,[5]; remained 1-3 mm in diameter,Four tumors (out of nine)
same,H3K79 methylation in tumor tissues,[6],only significantly reduced H3K79 methylation levels; also recorded: only H3K79 methylation was significantly inhibited
same,EC50,[7]; [29],2600 nM
same,EC50,"[7]; BT-549, 360 h, BT549, 15-day, read-out: EC50, 15-day treatment",29 nM
same,EC50,[8]; [30],910 nM
same,EC50,"[8]; MCF7, 360 h, MCF-7, 15-day, read-out: EC50, 15-day treatment",51 nM
same,CD44+/CD24− cell population,[9],reduced; also recorded: decreased
same,cell population expressing high levels of CD24,[9],significantly expanded; also recorded: increased cell population expressing high levels of CD24
same,"inhibitory activity against methylation at H3K4, H3K9, H3K27, H3K36 and H4K20",[10],no or negligible inhibitory activities; also recorded: negligible effects
same,ALDH+ cell population,[11],decreased; also recorded: reduced
same,toxicities,"[12]; 4 mg/kg/day for 28 days, in words",no obvious toxicities
same,"changes in blood cell counts, hemoglobin and body weight","[12]; 4 mg/kg/day, day 28, in words",did not cause significant changes; also recorded: no significant changes
same,Ki,[13],8.4 nM
same,secondary mammosphere formation,[14],more pronounced activity; also recorded: inhibited secondary mammosphere formation
same,apoptosis of MDA-MB231 cells,[15],12.1%
same,IC50,[16],> 6000 nM
same,IC50,[17],~50 nM
"CC(C)N(CCCNC(=O)Nc1ccc(C(C)(C)C)cc1)C[C@H]1O[C@@H](n2ccc3c(N)ncnc32)[C@H](O)[C@@H]1O [Compound 1, EPZ004777]",inhibition of Matrigel invasion,[18],~25%
same,EC50,"[1]; 360 h, 15-day treatment, MDA-MB231, BT549, MCF-7, read-out: EC50 against proliferation",190 to 1400 nM
same,EC50,"[1]; 360 h, DOT1L+ breast cancer cells, 15-day, read-out: anti-proliferation EC50",≥ 190 nM
same,inhibition of cell migration,"[2]; MDA-MB231, Transwell",~ 50%
same,cell migration and invasion,[2],reduced abilities of cell migration and invasion
same,EC50,[3]; [28],45000 nM
same,EC50,"[3]; MDA-MB-231, 360 h, MDA-MB231, 15-day treatment, read-out: Anti-proliferative activity EC50",190 nM
same,EC50,"[19]; 72 h, HCC70, 3-day treatment",20000 nM
same,EC50,"[19]; 360 h, HCC70, 15-day treatment",12000 nM
same,EC50,[7]; [29],29000 nM
same,EC50,"[7]; BT-549, 360 h, BT549, 15-day treatment, read-out: Anti-proliferative activity EC50",710 nM
same,EC50,[8]; [30],15000 nM
same,EC50,"[8]; MCF7, 360 h, MCF-7, 15-day treatment, read-out: Anti-proliferative activity EC50",950 nM
same,CD44+/CD24− cell population,[9],significantly decreased
same,cell population expressing high levels of CD24,[9],considerably more cells expressed higher levels of CD24; also recorded: increased cell population
same,ALDH+ cell population,[11],considerably reduced
same,effect on H3K79 methylation,[20],significantly reduced H3K79 methylation; also recorded: considerably reduced H3K79 methylation
same,EC50,"[21]; MDA-MB-157, 72 h, MDA-MB157, 3-day treatment",> 50000 nM
same,EC50,"[21]; MDA-MB-157, 360 h, MDA-MB157, 15-day treatment",27000 nM
same,pharmacokinetics,[22],poor pharmacokinetics with short plasma half-lives
same,EC50,"[23]; NB-4, 72 h, NB4, 3-day treatment",21000 nM
same,EC50,"[23]; NB-4, 360 h, NB4, 15-day treatment",22000 nM
same,EC50,"[24]; 72 h, A549, 3-day treatment",19000 nM
same,EC50,"[24]; 360 h, A549, 15-day treatment",20000 nM
same,activity against A549 cells,[24]; in words,negligible activity
same,EC50,[25],≥ 15000 nM
same,activity against DOT1L−/low breast or non-breast cancer cells,[26],inactive
same,genes whose expression is low in breast CSCs (GSEA),[27],upregulation
same,pro-proliferation genes in the PAM50 gene set (GSEA),[27],downregulation
same,IC50,[17],~50 nM
same,effect on H3K79 methylation,[17]; in words,only inhibited H3K79 methylation

# Reference: publication PMC4279401 (Oncotarget, 2014)
